# Data: patent publication US5118697A, “Cyclic beta-ketoamide ACAT inhibitors” (Warner-Lambert Company, priority 1991, dated 1992)
# Molecular target: T1, acyl-CoA: cholesterol acyltransferase (ACAT) (Oryctolagus cuniculus, UniProt G1SFD9)
# T1 construct: tissue preparation containing rabbit intestinal microsomes; from tissue; host or cells: rabbit intestinal microsomes
# T1 sequence (G1SFD9 1-524): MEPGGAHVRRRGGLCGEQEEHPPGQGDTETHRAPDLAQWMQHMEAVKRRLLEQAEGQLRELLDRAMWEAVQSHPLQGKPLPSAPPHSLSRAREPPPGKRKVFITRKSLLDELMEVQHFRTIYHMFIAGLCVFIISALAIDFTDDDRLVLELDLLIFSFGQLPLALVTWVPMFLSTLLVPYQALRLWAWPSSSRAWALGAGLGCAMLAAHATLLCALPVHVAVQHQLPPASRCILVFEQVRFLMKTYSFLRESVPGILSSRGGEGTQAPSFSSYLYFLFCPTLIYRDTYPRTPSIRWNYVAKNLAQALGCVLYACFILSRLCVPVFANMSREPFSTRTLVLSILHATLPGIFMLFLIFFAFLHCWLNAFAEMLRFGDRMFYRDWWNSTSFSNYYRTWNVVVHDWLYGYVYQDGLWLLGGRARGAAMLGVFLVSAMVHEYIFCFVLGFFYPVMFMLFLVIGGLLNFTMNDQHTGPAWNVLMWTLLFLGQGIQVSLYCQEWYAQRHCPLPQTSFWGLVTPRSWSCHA
# Assay: in vitro ACAT inhibition test: radiolabeled cholesterol oleate formed from radiolabeled oleic acid in rabbit intestinal microsomes
# Type: biochemical
# From the text: As shown by the data presented below in Table 1, the compounds of the present invention are potent inhibitors of the enzyme acyl-CoA: cholesterol acyltransferase (ACAT), and are thus effective in inhibiting the esterification and transport of cholesterol across the intestinal cell wall. The compounds of the present invention are thus useful in pharmaceutical formulations for the treatment of hypercholesterolemia or atherosclerosis.
# The ability of representative compounds of the present invention to inhibit ACAT was measured using an in vitro test more fully described in F. J. Field and R. G. Salone, Biochemica et Biophysica 712:557-570 (1982). The test assesses the ability of a test compound to inhibit the acylation of cholesterol by oleic acid by measuring the amount of radiolabeled cholesterol oleate formed from radiolabeled oleic acid in a tissue preparation containing rabbit intestinal microsomes.
row,IC50 [nM],SMILES
1,> 1000,CC(C)c1cccc(C(C)C)c1NC(=O)C1CCC(c2ccccc2)(c2ccccn2)C1=O (stereo not drawn) [Example 1]
2,1000,"CC(C)c1cccc(C(C)C)c1NC(=O)C1CCCC(c2ccccc2)(c2ccccn2)C1=O (stereo not drawn) [Example 2, N-[2,6 bis(1-methylethyl)phenyl]-2-oxo-3-phenyl-3-(2-pyridinyl)cyclohexanecarboxamide]"
3,> 1000,"CC(C)c1cccc(C(C)C)c1NC(=O)C1CCCC(Cc2c(CCN(C)C)n(C)c3ccccc23)(c2ccccc2)C1=O (stereo not drawn) [Example 3, N-[2,6 bis(1-methylethyl)phenyl-3-[2-[2-(dimethylamino)ethyl]-1-methyl-1H-indol-3-yl]methyl]-2-oxo-3-phenylcyclohexanecarboxamide]"
4,259,"CC(C)c1cccc(C(C)C)c1NC(=O)C1CCCC(Cc2ccccn2)(c2ccccc2)C1=O (stereo not drawn) [Example 4, N-[2,6-bis(1 methylethyl)phenyl]-2-oxo-3-phenyl-3-(2-pyridinylmethyl)cyclohexanecarboxamide]"
5,940,"CC(C)c1cccc(C(C)C)c1NC(=O)C1CCCC(Cc2ccccn2)(Cc2ccccn2)C1=O (stereo not drawn) [Example 5, N-[2,6-bis(1-methylethyl)phenyl]-2-oxo-3,3-bis(2-pyridinylmethyl)cyclohexanecarboxamide]"
6,72,"CC(C)c1cccc(C(C)C)c1NC(=O)C1CCCC(CCCCCOc2ccccc2)(c2ccccc2)C1=O (stereo not drawn) [Example 6, N-[2,6-bis (1-methylethyl)phenyl]-2-oxo-3-(5-phenoxypentyl)-3-phenylcyclohexanecarboxamide]"
